These results are taken from patent publication US4450269A, “Mono-5-substituted-3-chloro-4H-1,2,6-thiadiazin-4-one antifungal agents” (FMC Corporation, priority 1980, dated 1984).

For experiment [1], the system named is Venturia inaequalis. Briefly: Spore germination test. The format is cell-based. Conditions: VI, 48 hours. An outline of the steps:
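Compound from acetone stock mixed into water agar at 40, 10, 2.5 and 1 ppm; plated quadrants inoculated with spore suspension in sterile water. Incubation 48 hours at 24° C, then percentage of germinated spores counted and converted to a germination rating.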

For experiment [2], the system named is Alternaria solani. Briefly: Mycelial growth test. To be noted: AS; for inhibition at 5 ppm / inhibition at 10 ppm / inhibition at 20 ppm / inhibition at 40 ppm: Alternaria solani, 72 h, read-out: Percent Fungus Growth Inhibition; for Percent Fungus Growth Inhibition: 72 hours, hydrochloride. The class given is cell-based.

Structures are written as SMILES. Counter-ions that a name gives are not always drawn.

For the compound `O=c1c(Cl)nsnc1Oc1c(Cl)cccc1Cl` [Compound 18, 3-chloro-5-(2,6-dichlorophenoxy)-4H--1,2,6-thiadiazin-4-one], the “Spore Germination Rating” value is reported as 1 (10-40) in experiment [1] (1.0 ppm), 0 (0-10) in experiment [1] (2.5 ppm), 0 (0-10) in experiment [1] (10 ppm) and 0 (0-10) in experiment [1] (40 ppm). Besides, the inhibition at 5 ppm in experiment [2] (5 ppm) was 69%. The inhibition at 10 ppm in experiment [2] (10 ppm) was 90%. In addition, the inhibition at 20 ppm in experiment [2] (20 ppm) was 90%. For the same compound, the inhibition at 40 ppm in experiment [2] (40 ppm) turned out to be 84%.
`O=c1c(Cl)nsnc1Oc1cccc(Cl)c1Cl` [Compound 19, 3-chloro-5-(2,3-dichlorophenoxy)-4H--1,2,6-thiadiazin-4-one]: the “Spore Germination Rating” value is 1 (10-40) in experiment [1] (1.0 ppm), 0 (0-10) in experiment [1] (2.5 ppm), 0 (0-10) in experiment [1] (10 ppm) and 0 (0-10) in experiment [1] (40 ppm). Besides, in experiment [2] (5 ppm), the inhibition at 5 ppm came to 62%. The inhibition at 10 ppm in experiment [2] (10 ppm) was 62%. Further, in experiment [2] (20 ppm), the inhibition at 20 ppm is 90%. Moreover, the inhibition at 40 ppm in experiment [2] (40 ppm) was found to be 100%.
Consider `O=c1c(Cl)nsnc1Oc1cc(Cl)cc(Cl)c1` [Compound 20, 3-chloro-5-(3,5-dichlorophenoxy)-4H--1,2,6-thiadiazin-4-one], for which the “Spore Germination Rating” value in experiment [1] (1.0 ppm), in experiment [1] (2.5 ppm), in experiment [1] (10 ppm) and in experiment [1] (40 ppm) was 0 (0-10) each time. The inhibition at 5 ppm in experiment [2] (5 ppm) is 59%. The inhibition at 10 ppm in experiment [2] (10 ppm) is 59%. Besides, the inhibition at 20 ppm in experiment [2] (20 ppm) worked out at 59%. The inhibition at 40 ppm in experiment [2] (40 ppm) was 83%.
In the case of `Cc1cccc(Oc2nsnc(Cl)c2=O)c1` [Compound 21, 3-chloro-5-(3-methylphenoxy)-4H--1,2,6-thiadiazin-4-one], the “Spore Germination Rating” value is reported as 4 (80-100) in experiment [1] (1.0 ppm), 3 (60-80) in experiment [1] (2.5 ppm), 0 (0-10) in experiment [1] (10 ppm) and 0 (0-10) in experiment [1] (40 ppm). In addition, the inhibition at 5 ppm in experiment [2] (5 ppm) worked out at 75%. Moreover, the inhibition at 10 ppm in experiment [2] (10 ppm) worked out at 63%. Further, the inhibition at 20 ppm in experiment [2] (20 ppm) came out at 75%. Also, the inhibition at 40 ppm in experiment [2] (40 ppm) was 100%.
As for `Cc1ccccc1Oc1nsnc(Cl)c1=O` [Compound 22, 3-chloro-5-(2-methylphenoxy)-4H--1,2,6-thiadiazin-4-one], the “Spore Germination Rating” value in experiment [1] (1.0 ppm), in experiment [1] (2.5 ppm), in experiment [1] (10 ppm) and in experiment [1] (40 ppm) was 0 (0-10) each time. The inhibition at 5 ppm in experiment [2] (5 ppm) was determined as 63%. Also, the inhibition at 10 ppm in experiment [2] (10 ppm) worked out at 88%. Also, the inhibition at 20 ppm in experiment [2] (20 ppm) is 100%. In addition, the inhibition at 40 ppm in experiment [2] (40 ppm) was 100%.
Turning to `Cc1ccc(Oc2nsnc(Cl)c2=O)c(C)c1` [Compound 23, 3-chloro-5-(2,4-dimethylphenoxy)-4H--1,2,6-thiadiazin-4-one], the “Spore Germination Rating” value in experiment [1] (1.0 ppm) is reported as 4 (80-100); in experiment [1] (2.5 ppm), 3 (60-80); in experiment [1] (10 ppm), 1 (10-40); in experiment [1] (40 ppm) it was 0 (0-10). Besides, the inhibition at 5 ppm in experiment [2] (5 ppm) stood at 63%. Further, the inhibition at 10 ppm in experiment [2] (10 ppm) was determined as 81%. In experiment [2] (20 ppm), the inhibition at 20 ppm stood at 100%. Besides, the inhibition at 40 ppm in experiment [2] (40 ppm) is 100%.
With `Cc1cccc(C)c1Oc1nsnc(Cl)c1=O` [Compound 24, 3-chloro-5-(2,6-dimethylphenoxy)-4H--1,2,6-thiadiazin-4-one], the “Spore Germination Rating” value in experiment [1] (1.0 ppm) is 2 (40-60); in experiment [1] (2.5 ppm), 0 (0-10); in experiment [1] (10 ppm), 0 (0-10); in experiment [1] (40 ppm), 0 (0-10). Further, the inhibition at 5 ppm in experiment [2] (5 ppm) came out at 100%. In addition, in experiment [2] (10 ppm), the inhibition at 10 ppm amounted to 88%. Further, the inhibition at 20 ppm in experiment [2] (20 ppm) is 100%. Further, in experiment [2] (40 ppm), the inhibition at 40 ppm was 100%.
For the compound `Cc1cc(C)cc(Oc2nsnc(Cl)c2=O)c1` [Compound 25, 3-chloro-5-(3,5-dimethylphenoxy)-4H--1,2,6-thiadiazin-4-one], the “Spore Germination Rating” value in experiment [1] (1.0 ppm) is given as 4 (80-100); in experiment [1] (2.5 ppm), 0 (0-10); in experiment [1] (10 ppm), 2 (40-60); in experiment [1] (40 ppm), 0 (0-10). The inhibition at 5 ppm in experiment [2] (5 ppm) is 69%. Also, in experiment [2] (10 ppm), the inhibition at 10 ppm came out at 75%. Also, in experiment [2] (20 ppm), the inhibition at 20 ppm amounted to 81%. Moreover, the inhibition at 40 ppm in experiment [2] (40 ppm) is 88%.
Turning to `Nc1ccc(Oc2nsnc(Cl)c2=O)cc1` [Compound 26, 5-(4-aminophenoxy)-3-chloro-4H--1,2,6-thiadiazin-4-one], the “Spore Germination Rating” value in experiment [1] (1.0 ppm) was 4 (80-100); in experiment [1] (2.5 ppm) it was 4 (80-100); in experiment [1] (10 ppm), 4 (80-100); in experiment [1] (40 ppm) it was 1 (10-40). Further, the inhibition at 5 ppm in experiment [2] (5 ppm) came out at 60%. In experiment [2] (10 ppm), the inhibition at 10 ppm stood at 80%. For the same compound, the inhibition at 20 ppm in experiment [2] (20 ppm) amounted to 100%. Moreover, the inhibition at 40 ppm in experiment [2] (40 ppm) turned out to be 100%.
Regarding `Nc1ccc(Oc2nsnc(Cl)c2=O)cc1` [Compound 27, 5-(4-aminophenoxy)-3-chloro-4H--1,2,6-thiadiazine-4-one hydrochloride], the “Spore Germination Rating” value in experiment [1] (1.0 ppm, hydrochloride) was 0 (0-10); in experiment [1] (2.5 ppm, hydrochloride), 0 (0-10); in experiment [1] (10 ppm, hydrochloride), 0 (0-10); in experiment [1] (40 ppm, hydrochloride) it was 0 (0-10). Further, the “Percent Fungus Growth Inhibition” value in experiment [2] (5 ppm) was 47%; in experiment [2] (10 ppm), 73%; in experiment [2] (20 ppm) it was 80%; in experiment [2] (40 ppm), 87%.
Turning to `CNC(=O)Nc1ccc(Oc2nsnc(Cl)c2=O)cc1` [Compound 28, 3-chloro-5-[4-(3-methylureido)-phenoxy]-4H--1,2,6-thiadiazin-4-one], the “Spore Germination Rating” value in experiment [1] (1.0 ppm) is listed as 4 (80-100); in experiment [1] (2.5 ppm), 4 (80-100); in experiment [1] (10 ppm), 2 (40-60); in experiment [1] (40 ppm) it was 3 (60-80). For the same compound, the inhibition at 5 ppm in experiment [2] (5 ppm) worked out at 40%. The inhibition at 10 ppm in experiment [2] (10 ppm) is 47%. Moreover, the inhibition at 20 ppm in experiment [2] (20 ppm) was 50%. Further, in experiment [2] (40 ppm), the inhibition at 40 ppm is 70%.
Take `O=C(Nc1ccccc1)Nc1ccc(Oc2nsnc(Cl)c2=O)cc1` [Compound 29, 3-chloro-5-[4-(3-phenylureido)-phenoxy]-4H--1,2,6-thiadiazin-4-one]: the “Spore Germination Rating” value in experiment [1] (1.0 ppm) was 4 (80-100); in experiment [1] (2.5 ppm), 4 (80-100); in experiment [1] (10 ppm) it was 4 (80-100); in experiment [1] (40 ppm), 0 (0-10). The inhibition at 5 ppm in experiment [2] (5 ppm) worked out at 47%. For the same compound, the inhibition at 10 ppm in experiment [2] (10 ppm) is 30%. Moreover, the inhibition at 20 ppm in experiment [2] (20 ppm) amounted to 37%. The inhibition at 40 ppm in experiment [2] (40 ppm) was found to be 47%.
Take `O=c1c(Cl)nsnc1Oc1c(Cl)cc(Cl)cc1Cl` [Compound 30, 3-chloro-5-(2,4,6-trichlorophenoxy)-4H--1,2,6-thiadiazin-4-one]: the “Spore Germination Rating” value in experiment [1] (1.0 ppm) is 1 (10-40); in experiment [1] (2.5 ppm) it was 0 (0-10); in experiment [1] (10 ppm) it was 0 (0-10); in experiment [1] (40 ppm) it was 0 (0-10). Besides, the inhibition at 5 ppm in experiment [2] (5 ppm) came out at 29%. Besides, the inhibition at 10 ppm in experiment [2] (10 ppm) came to 67%. Moreover, the inhibition at 20 ppm in experiment [2] (20 ppm) was 81%. In addition, the inhibition at 40 ppm in experiment [2] (40 ppm) stood at 90%.
Regarding `O=c1c(Cl)nsnc1Oc1c(Cl)c(Cl)c(Cl)c(Cl)c1Cl` [Compound 31, 3-chloro-5-(pentachlorophenoxy)-4H--1,2,6-thiadiazine-4-one], the “Spore Germination Rating” value in experiment [1] (1.0 ppm), in experiment [1] (2.5 ppm), in experiment [1] (10 ppm) and in experiment [1] (40 ppm) was 0 (0-10) throughout. Moreover, in experiment [2] (5 ppm), the inhibition at 5 ppm was found to be 48%. The inhibition at 10 ppm in experiment [2] (10 ppm) came out at 60%. Also, in experiment [2] (20 ppm), the inhibition at 20 ppm came to 48%. Besides, the inhibition at 40 ppm in experiment [2] (40 ppm) turned out to be 67%.
For `O=c1c(Cl)nsnc1Oc1cccc2ccccc12` [Compound 32, 3-chloro-5(1-naphthoxy)-4H-1,2,6-thiadiazin-4-one], the “Spore Germination Rating” value in experiment [1] (1.0 ppm) is recorded as 3 (60-80); in experiment [1] (2.5 ppm), 0 (0-10); in experiment [1] (10 ppm), 0 (0-10); in experiment [1] (40 ppm), 0 (0-10). Moreover, the inhibition at 5 ppm in experiment [2] (5 ppm) came out at 58%. The inhibition at 10 ppm in experiment [2] (10 ppm) was 58%. Further, the inhibition at 20 ppm in experiment [2] (20 ppm) was found to be 88%. Also, the inhibition at 40 ppm in experiment [2] (40 ppm) is 92%.
